Where a name gives a salt, the structure may show the parent alone.
Test system: spontaneously hypotensive rats (SHR)
Experiment: Hypotensive activity: systolic blood pressure by tail plethysmographic technique after oral dosing
Assay type: in vivo
Conditions: 30 mg/kg orally, SHR fasted overnight
Procedure: A test compound dissolved or suspended in water was administered orally at a dose of 30 mg/kg to spontaneously […] (SHR) fasted overnight, and the systolic blood pressure of the rats was measured at intervals by the tail plethysmographic technique (The Journal of Laboratory and Clinical Medicine, Vol. 78(1971), page 957). The hypotensive activity of the test compound was estimated in terms of "Decrease in Blood pressure (Δ mm Hg)" which was calculated by the following formula: Decrease in Blood pressure (Δ mm Hg) = [formula]

COc1ccc([C@@H]2Sc3ccc4ccccc4c3N(CCN(C)C)C(=O)[C@@H]2OC(C)=O)cc1 (racemic) [Test compound, (±)-cis-2-(4-methoxyphenyl)-3-acetoxy-5-[2-dimethylamino)ethyl]-2,3-dihydro-naphtho[2,1-b][1,5]thiazepin-4(5H)-one fumarate]
Decrease in Blood pressure (Time after dosing 1 hr): 58.3±8.8 Δmm Hg | Decrease in Blood pressure (Time after dosing 2 hrs): 51.3±7.7 Δmm Hg | Decrease in Blood pressure (Time after dosing 5 hrs): 34.0±6.2 Δmm Hg

— EP0302379A1, “Naphthothiazepine derivatives and a process for preparing the same” (TANABE SEIYAKU CO., LTD., priority 1987, dated 1989)
